The text below walks through data of PMC11531485, “Examining prestructured β-actin peptides as substrates of histidine methyltransferase SETD3” (Scientific Reports, 2024).

For data set [1], the target named is T1, human SETD3 (Homo sapiens, UniProt Q86TU7).
T1 construct: His6 (N); made in house; host or cells: E. coli BL21(DE3)
T1 sequence (Q86TU7 1-594): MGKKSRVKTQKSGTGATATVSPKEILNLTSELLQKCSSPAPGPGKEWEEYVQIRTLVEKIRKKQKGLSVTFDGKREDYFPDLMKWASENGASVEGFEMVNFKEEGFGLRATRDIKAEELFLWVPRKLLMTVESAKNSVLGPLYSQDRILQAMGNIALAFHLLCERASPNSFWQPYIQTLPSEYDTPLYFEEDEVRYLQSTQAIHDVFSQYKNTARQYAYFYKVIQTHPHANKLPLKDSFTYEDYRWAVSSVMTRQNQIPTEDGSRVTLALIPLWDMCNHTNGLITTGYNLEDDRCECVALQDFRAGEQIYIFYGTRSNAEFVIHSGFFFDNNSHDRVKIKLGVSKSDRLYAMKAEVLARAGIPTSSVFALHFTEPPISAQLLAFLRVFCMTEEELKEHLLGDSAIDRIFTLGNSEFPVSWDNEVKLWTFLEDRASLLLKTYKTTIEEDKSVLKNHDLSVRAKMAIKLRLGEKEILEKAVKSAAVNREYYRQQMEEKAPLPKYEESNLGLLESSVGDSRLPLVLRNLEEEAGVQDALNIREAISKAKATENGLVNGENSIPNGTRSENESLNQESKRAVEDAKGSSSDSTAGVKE
The experiment in a line: MALDI-TOF MS methylation kinetics assay (Michaelis-Menten, steady state). It counts as biochemical. To be noted: 200 nM SETD3, 3.125-150 µM peptide, 100 µM SAM, pH 9.0, 37 °C; for Km / kcat: 25 mM Tris, 20 mM NaCl, MALDI-TOF MS, duplicate, mean ± SE, SEM. On the procedure: (§1) Catalytic efficiencies were explored for SETD3-catalyzed methylation of linear βA peptides 1, 6, 8 and 10 (Fig. 5; Table 1). Kinetic parameters were determined using MALDI-TOF MS assays under steady-state conditions by incubation with saturating amounts of SAM (100 µM)[23]. Addition of SETD3 (200 nM) to varying concentrations of linear βA peptides (0–150 µM) in reaction buffer initiated the reaction, upon which the mixture was incubated at 37 °C and quenched at timepoints that guarantee v0-reaction rates for SETD3-catalyzed methylation.
(§2) Fig. 5 Michaelis–Menten kinetics of linear βA peptides at varying concentrations (3.125-150 µM) by SETD3 (200 nM) in presence of saturating amounts of SAM (100 µM) in reaction buffer (25 mM Tris, 20 mM NaCl, pH = 9.0) at 37 °C.
(§3) Kinetics evaluation was carried out with a MALDI-TOF MS assay under steady state conditions. βA peptides (3.125–150 µM) and SAM (100 µM) were dissolved in methylation buffer (25 mM Tris, 20 mM NaCl, pH = 9.0), upon which the reaction was initiated by addition of SETD3. Reactions were incubated at 37 °C and shaken at 750 rpm Eppendorf Thermomixer C for 30 min, upon which the reactions were quenched by addition of 10% TFA in MilliQ water (1:1). Reactions were aliquoted and mixed with α-cyano-4-hydroxycinnamic acid dissolved in MilliQ H2O and ACN (1:1, v/v) with 0.1% TFA. The aliquots were loaded onto a MTP 384 polished steel target for MALDI-TOF analysis using a UltrafleXtreme. Methylated product was quantified by determining the combined integrals of the various ionic species of the methylated product. Kinetic parameters were subsequently determined by plotting V0 values and actin peptide concentrations and fitting them to the Michaelis–Menten equation using GraphPad Prism software. Experiments were performed in duplicate and values are reported as mean [drawing 1] standard error (SE) (Figs. S3-S4).

Data set [2] has as its target T1, human SETD3. Put plainly: MALDI-TOF MS enzymatic substrate scope assay (SETD3-catalyzed methylation of βA peptides). It counts as biochemical. To be noted: 1 µM SETD3, 10 µM βA peptide, 100 µM SAM, 25 mM Tris, 20 mM NaCl, pH 9.0, 37 °C; for SETD3-catalyzed methylation after 3 h: N = 2. How it is done:
We examined conformationally restrained βA peptides and linear controls as substrates for the recombinantly expressed human SETD3 employing MALDI-TOF MS to detect a characteristic + 14 Da mass increase upon methylation. Enzymatic reactions were evaluated using standard conditions (1 µM SETD3, 10 µM βA, 100 µM SAM) in methylation buffer (25 mM Tris, 20 mM NaCl, pH = 9.0 at 37 °C)[21]. The enzymatic reaction was quenched with 10% TFA in MilliQ water (1:1 v/v) at 1 h and 3 h before mass spectrometric analysis (Figs . 4 and S3-S4). […] Finally, azide-alkyne Cu^I-mediated Huisgen 1,3-dipolar cycloaddition yields peptide 11 that was poorly (14%) methylated by SETD3 after 3 h under standard conditions (Figs. 4L and S4L). […] Taken together, these findings illustrate an overall preference of human SETD3 for flexible βA peptides, which facilitates βA-H73 insertion into the active site. Introduction of flexible macrocycles results in an overall reduced methylation by SETD3, while bulky or rigidifying moieties present within the macrocycles render the βA peptides non-reactive to methylation by SETD3.
Fig. 4 MALDI-TOF MS data showing SETD3-catalyzed (1 µM) methylation of βA peptides (10 µM) in the presence of SAM (100 µM) in reaction buffer (25 mM Tris, 20 mM NaCl, pH = 9.0) after 3 h at 37 °C. (A) βA, (B) 1, (C) 2, (D) 3, (E) 4, (F) 5, (G) 6, (H) 7, (I) 8, (J) 9, (K) 10, (L) 11. Control reactions in the absence of SETD3 are shown in black, whereas SETD3-catalyzed reactions are shown in red.
SETD3 substrate scope experiments towards βA peptides were performed by incubation of βA peptides (10 µM) in methylation buffer (25 mM Tris, 20 mM NaCl, pH = 9.0) in the presence of SAM (100 µM) and SETD3 (1 µM) in a final volume of 50 µL for 1 and 3 h at 37 °C while shaking at 750 rpm in an Eppendorf Thermomixer C. The reaction was quenched by addition of 10% TFA in MilliQ H2O (1:1). The reactions were aliquoted and mixed with α-cyano-4-hydroxycinnamic acid dissolved in MilliQ H2O and ACN (1:1, v/v) with 0.1% TFA. The aliquots were loaded onto a MTP 384 polished steel target for MALDI-TOF analysis using a UltrafleXtreme and conversion to methylated product was monitored.

Data set [3] concerns the target human SETD3 histidine methyltransferase (human) (UniProt Q86TU7).
The target of data set [4] is T2, human SETD3 histidine methyltransferase (human, UniProt Q86TU7 1-594).
T2 sequence (looked up): T1 sequence (Q86TU7 1-594)

Substrate in data set [5]: CC[C@H](C)[C@H](NC(=O)CNC(=O)[C@H](Cc1c[nH]cn1)NC(=O)[C@H](CCC(=O)O)NC(=O)[C@@H](NC(=O)[C@@H]1CCCN1C(=O)[C@H](Cc1ccc(O)cc1)NC(=O)[C@H](CCCCN)NC(=O)[C@H](CC(C)C)NC(=O)[C@@H](N)[C@@H](C)O)[C@@H](C)CC)C(=O)N[C@H](C(=O)N[C@H](C(=O)N[C@@H](CC(N)=O)C(=O)N[C@@H](Cc1c[nH]c2ccccc12)C(=O)N[C@@H](CC(=O)O)C(=O)N[C@@H](CC(=O)O)C(N)=O)[C@@H](C)O)C(C)C
The experiment in a line: MALDI-TOF MS methylation kinetics assay (Michaelis-Menten, steady state). It counts as biochemical, human. To be noted: other: 200 nM SETD3, 3.125-150 µM peptide, 100 µM SAM, 25 mM Tris, 20 mM NaCl, pH 9.0, 37 °C, duplicate, mean ± SE. How it is done: as §1, §2, §3

Positions of bridges follow the written chain, without caps; N, C: chain ends. Non-standard residues stand in square brackets, D forms with d. Residues, ends and D or L forms follow the SMILES beside them. No end group written: not given here. Orn = NCCC[C@H](N)C(=O)O

In the case of “TLKYPICHGCVTNWDD [compound 1, linear dicysteine βA66-81 control peptide]”, at human SETD3 [1], the Km (commonly the substrate concentration at which the rate is half of its maximum) came out at 75.7 ± 20 µM; the kcat (in general, the maximal rate divided by the concentration of active sites) worked out at 0.983 ± 0.125 s⁻¹; the kcat/Km (as a rule, the turnover number divided by the Michaelis constant) amounted to 13000 M⁻¹ s⁻¹. The “SETD3-catalyzed methylation (conversion) within 1 h” value on human SETD3 [2] was “full conversion”.

In the case of “TLKYPIEHG[Orn]VTNWDD [compound 6, linear lactam control, βA-I75 substituted by Orn]”, at human SETD3 [1], the Km worked out at 45.2 ± 8.1 µM, the kcat is 3.68 ± 0.267 s⁻¹ and the kcat/Km amounted to 81800 M⁻¹ s⁻¹. Also, the “SETD3-catalyzed methylation (conversion) within 1 h” value on human SETD3 [2] is listed as “completely methylated”.

As to “TLKYPICHGCVTNWDD (also: sidechain bridge or staple (positions not given here)) [compound 2, stapled bis-thiol alkylated βA peptide]”, the “SETD3-catalyzed methylation after 3 h” value on human SETD3 [2] was 30%.

Take “TLKYPILys(N3)HGPraVTNWDD (sidechain bridge or staple) [compound 11, triazole-stapled βA peptide from azide-alkyne cycloaddition of 10]”: the “SETD3-catalyzed methylation after 3 h” value at human SETD3 [2] worked out at 14%.

On to “TLKYPILys(N3)HGPraVTNWDD [compound 10, linear click-control with azido-lysine and propargylglycine]”, for which, on human SETD3 [1], the Michaelis constant (Km) was 77.8 ± 14 µM, the turnover number (kcat) was 1.72 ± 0.15 s⁻¹ and the kcat/Km was 22000 M⁻¹ s⁻¹. Also, the “SETD3-catalyzed methylation after 3 h (in words)” value at human SETD3 [2] is listed as “full conversion”.

Turning to “linear βA peptide 8 (I75K) (from UniProt P60709 66-81)”, in data set [3], the Km of SETD3-catalysed methylation, MALDI-TOF MS steady-state kinetics (200 nM SETD3, 100 µM SAM, pH 9.0, 37 °C) came out at 25.1 µM; the kcat of SETD3-catalysed methylation, MALDI-TOF MS steady-state kinetics (200 nM SETD3, 100 µM SAM, pH 9.0, 37 °C) is 246 min^-1; the kcat/Km of SETD3-catalysed methylation, MALDI-TOF MS steady-state kinetics (200 nM SETD3, 100 µM SAM, pH 9.0, 37 °C) was determined as 9.8 µM^-1min^-1.

Regarding `CC[C@H](C)[C@H](NC(=O)[C@@H]1CCCN1C(=O)[C@H](Cc1ccc(O)cc1)NC(=O)[C@H](CCCCN)NC(=O)[C@H](CC(C)C)NC(=O)[C@@H](N)[C@@H](C)O)C(=O)N[C@H]1CCC(=O)NCCCC[C@@H](C(=O)N[C@H](C(=O)N[C@H](C(=O)N[C@@H](CC(N)=O)C(=O)N[C@@H](Cc2c[nH]c3ccccc23)C(=O)N[C@@H](CC(=O)O)C(=O)N[C@@H](CC(=O)O)C(N)=O)[C@@H](C)O)C(C)C)NC(=O)CNC(=O)[C@H](Cc2c[nH]cn2)NC1=O` [compound 9] (H-TLKYPIEHGKVTNWDD-NH2; lactam 7-10), on human SETD3 [2], the “SETD3-catalyzed methylation after 3 h” value came to 25%.

For “TLKYPICHGCVTNWDD (also: sidechain bridge or staple (positions not given here)) [compound 3, stapled bis-thiol alkylated βA peptide]”, at human SETD3 [2], the “SETD3-catalyzed methylation after 3 h” value was 35%.

In the case of “linear βA peptide 6 (Ile75 replaced by ornithine) (from UniProt P60709 66-81)”, in data set [4], the Km of SETD3-catalysed methylation, MALDI-TOF MS steady-state kinetics (200 nM SETD3, 100 µM SAM, pH 9.0, 37 °C) was 45.2 µM; the kcat of SETD3-catalysed methylation, MALDI-TOF MS steady-state kinetics (200 nM SETD3, 100 µM SAM, pH 9.0, 37 °C) came out at 221 min^-1; the kcat/Km of SETD3-catalysed methylation, MALDI-TOF MS steady-state kinetics (200 nM SETD3, 100 µM SAM, pH 9.0, 37 °C) stood at 4.91 µM^-1min^-1.

For the molecule “TLKYPIEHG[Orn]VTNWDD (also: sidechain bridge or staple (positions not given here)) [compound 7, i, i + 3 lactam-bridged βA peptide (Glu72-Orn75)]”, on human SETD3 [2], the “SETD3-catalyzed methylation after 3 h” value is given as 41%.

In the case of “TLKYPICHGCVTNWDD (also: sidechain bridge or staple (positions not given here)) [compound 4, βA peptide stapled with hexafluorobenzene]”, the “SETD3-catalyzed methylation after 3 h (in words)” value on human SETD3 [2] is given as “inert to methylation”.

B1: human SETD3 (Homo sapiens) (protein)
chain: T1 sequence (Q86TU7 1-594)
notes: His6 (N); made in house; host or cells: E. coli BL21(DE3)
On to B1, for which, in data set [5], the Km was 25.6 ± 4.9 µM, the catalytic constant (kcat) was found to be 2.47 ± 0.145 s⁻¹ and the kcat/Km was determined as 96300 M⁻¹ s⁻¹.
